Inhibition and IC50 data for 26 molecules are collected here from patent US11142526B2, “Spirocycle compounds and methods of making and using same” (H. Lundbeck A/S, priority 2017, dated 2021).

Assay [1] deals with MAGL (Homo sapiens (Human), UniProt Q99685). Nature of the assay: In vitro competitive activity-based protein profiling (gel-based, FP-Rh or HT-01 probe). The format is biochemical. On the procedure: In Vitro Competitive Activity-Based Protein Profiling.
Proteomes (human prefrontal cortex or cell membrane fractions) (50 μL, 1.0 mg/mL total protein concentration) were preincubated with varying concentrations of inhibitors at 37° C. After 30 min, FP-Rh or HT-01 (1.0 μL, 50 μM in DMSO) was added and the mixture was incubated for another 30 min at room temperature. Reactions were quenched with SDS loading buffer (15 μL—4×) and run on SDS-PAGE.

The target in assay [2] is MAGL (Mus musculus (Mouse), UniProt O35678). Nature of the assay: In vitro competitive activity-based protein profiling, mouse brain proteome. The format is biochemical. To be noted: for inhibition at 1 µM: mouse; for IC50: mouse brain.
Sequence of MAGL (Mus musculus (Mouse), UniProt O35678) (O35678 whole entry): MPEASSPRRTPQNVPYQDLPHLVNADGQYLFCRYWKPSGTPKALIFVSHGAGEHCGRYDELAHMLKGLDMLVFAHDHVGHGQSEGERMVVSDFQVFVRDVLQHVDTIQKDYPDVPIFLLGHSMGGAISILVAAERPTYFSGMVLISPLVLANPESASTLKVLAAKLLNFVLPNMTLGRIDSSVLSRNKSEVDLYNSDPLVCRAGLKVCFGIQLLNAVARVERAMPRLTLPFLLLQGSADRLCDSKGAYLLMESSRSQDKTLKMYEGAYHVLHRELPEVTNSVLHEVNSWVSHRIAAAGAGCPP
The mark [3] stands for this setting: human PFC (prefrontal cortex), read-out: MAGL % Inhibition at 1 μM (human PFC).
Setting [4] is: human PC3, read-out: MAGL % Inhibition at 1 μM (human PC3).

Where two headings read alike, the source gives them in different places.

Sequence of MAGL (Homo sapiens (Human), UniProt Q99685) (Q99685 whole entry): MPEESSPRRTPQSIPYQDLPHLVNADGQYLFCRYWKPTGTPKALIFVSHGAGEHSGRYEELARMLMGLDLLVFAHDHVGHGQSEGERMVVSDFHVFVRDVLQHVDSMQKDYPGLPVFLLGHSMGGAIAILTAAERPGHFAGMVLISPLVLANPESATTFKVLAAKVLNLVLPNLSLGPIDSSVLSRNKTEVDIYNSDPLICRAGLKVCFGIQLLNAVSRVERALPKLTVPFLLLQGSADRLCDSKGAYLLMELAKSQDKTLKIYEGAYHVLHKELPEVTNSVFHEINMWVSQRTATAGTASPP

In general, inhibition refers to how much of the control response was suppressed. With `O=C(OC(C(F)(F)F)C(F)(F)F)N1CCC2(CCN(Cc3cccnn3)C2)CC1` [Example 9, 1,1,1,3,3,3-Hexafluoropropan-2-yl 2-(pyridazin-3-ylmethyl)-2,8-diazaspiro[4.5]decane-8-carboxylate], in assay [1] (setting [3]), the inhibition at 1 µM is over 75%.
As a reminder, the IC50 is the point on the concentration scale where inhibition reaches its midpoint. On to `O=C(OC(C(F)(F)F)C(F)(F)F)N1CCC2(CCCN2C(=O)C(F)(F)c2ncccn2)CC1` [Example 32, 1,1,1,3,3,3-Hexafluoropropan-2-yl 1-(2,2-difluoro-2-(pyrimidin-2-yl)acetyl)-1,8-diazaspiro[4.5]decane-8-carboxylate], for which the inhibition at 1 µM in assay [1] (setting [4]) and in assay [1] (setting [3]) was over 75% throughout. The half-inhibitory concentration (IC50) in assay [1] (human PC3, read-out: MAGL Human PC3 (IC50)) is under 100 nM.
`O=C(Cc1nc(C(F)(F)F)ccc1CN1CCCC12CCN(C(=O)OC(C(F)(F)F)C(F)(F)F)CC2)NS(=O)(=O)C1CC1` [Example 35, 1,1,1,3,3,3-Hexafluoropropan-2-yl 1-((2-(2-(cyclopropanesulfonamido)-2-oxoethyl)-6-(trifluoromethyl)pyridin-3-yl)methyl)-1,8-diazaspiro[4.5]decane-8-carboxylate]: the inhibition at 1 µM in assay [1] (setting [4]) was over 75%.
In assay [2], `O=C(OC(C(F)(F)F)C(F)(F)F)N1CCC2(CCCN2C(=O)c2cnn(-c3ccc(Cl)cc3)c2)CC1` [Example 78, 1,1,1,3,3,3-Hexafluoropropan-2-yl 1-(1-(4-chlorophenyl)-1H-pyrazole-4-carbonyl)-1,8-diazaspiro[4.5] decane-8-carboxylate] displayed an inhibition at 1 µM of over 75% and an IC50 of under 100 nM.
For `O=C(OC(C(F)(F)F)C(F)(F)F)N1CCC2(CCCN2C(=O)c2cc3ccccc3s2)CC1` [Example 80, 1,1,1,3,3,3-Hexafluoropropan-2-yl 1-(benzo[b]thiophene-2-carbonyl)-1,8-diazaspiro[4.5] decane-8-carboxylate] the same measures were over 75% and under 100 nM.
In assay [2], `CC(C)n1ccc(C(=O)N2CCCC23CCN(C(=O)OC(C(F)(F)F)C(F)(F)F)CC3)n1` [Example 81, 1,1,1,3,3,3-Hexafluoropropan-2-yl 1-(1-isopropyl-1H-pyrazole-3-carbonyl)-1,8-diazaspiro[4.5] decane-8-carboxylate] had an inhibition at 1 µM of over 75% and an IC50 of under 100 nM.
As for `O=C(OC(C(F)(F)F)C(F)(F)F)N1CCC2(CCCN2C(=O)c2ccn(-c3ccccc3)n2)CC1` [Example 82, 1,1,1,3,3,3-Hexafluoropropan-2-yl 1-(1-phenyl-1H-pyrazole-3-carbonyl)-1,8-diazaspiro[4.5] decane-8-carboxylate], in assay [2], the inhibition at 1 µM is over 75% and the IC50 was under 100 nM.
For `O=C(OC(C(F)(F)F)C(F)(F)F)N1CCC2(CCCN2C(=O)c2cc3ccccc3o2)CC1` [Example 83, 1,1,1,3,3,3-Hexafluoropropan-2-yl 1-(benzofuran-2-carbonyl)-1,8-diazaspiro[4.5] decane-8-carboxylate] the same measures were over 75% and under 100 nM.
For `O=C(OC(C(F)(F)F)C(F)(F)F)N1CCC2(CCCN2C(=O)c2nc3ccccc3o2)CC1` [Example 84, 1,1,1,3,3,3-Hexafluoropropan-2-yl 1-(benzo[d]oxazole-2-carbonyl)-1,8-diazaspiro[4.5] decane-8-carboxylate] the same measures were over 75% and under 100 nM.
For `O=C(OC(C(F)(F)F)C(F)(F)F)N1CCC2(CCCN2C(=O)c2ccc3[nH]ccc3c2)CC1` [Example 89, 1,1,1,3,3,3-Hexafluoropropan-2-yl 1-(1H-indole-5-carbonyl)-1,8-diazaspiro[4.5] decane-8-carboxylate] the same measures were over 75% and under 100 nM.
In assay [2], `O=C(OC(C(F)(F)F)C(F)(F)F)N1CCC2(CCCN2C(=O)c2ccc3sccc3c2)CC1` [Example 90, 1,1,1,3,3,3-Hexafluoropropan-2-yl 1-(benzo[b]thiophene-5-carbonyl)-1,8-diazaspiro[4.5] decane-8-carboxylate] returned an inhibition at 1 µM of over 75% and a half-inhibitory concentration (IC50) of under 100 nM.
The corresponding values for `Cc1c(C(=O)N2CCCC23CCN(C(=O)OC(C(F)(F)F)C(F)(F)F)CC3)sc2ccccc12` [Example 94, 1,1,1,3,3,3-Hexafluoropropan-2-yl 1-(3-methylbenzo[b]thiophene-2-carbonyl)-1,8-diazaspiro[4.5] decane-8-carboxylate] are over 75% and under 100 nM.
The corresponding values for `O=C(OC(C(F)(F)F)C(F)(F)F)N1CCC2(CCCN2C(=O)c2cc3cc(Cl)ccc3s2)CC1` [Example 95, 1,1,1,3,3,3-Hexafluoropropan-2-yl 1-(5-chlorobenzo[b]thiophene-2-carbonyl)-1,8-diazaspiro[4.5] decane-8-carboxylate] are over 75% and under 100 nM.
In turn, `O=C(OC(C(F)(F)F)C(F)(F)F)N1CCC2(CCCN2C(=O)c2sc3ccccc3c2Cl)CC1` [Example 97, 1,1,1,3,3,3-Hexafluoropropan-2-yl 1-(3-chlorobenzo[b]thiophene-2-carbonyl)-1,8-diazaspiro[4.5] decane-8-carboxylate] registered an inhibition at 1 µM in assay [2] of over 75%.
In assay [2], `O=C(OC(C(F)(F)F)C(F)(F)F)N1CCC2(CCCN2C(=O)c2cc3cccc(C(F)(F)F)c3s2)CC1` [Example 98, 1,1,1,3,3,3-Hexafluoropropan-2-yl 1-(7-(trifluoromethyl)benzo[b]thiophene-2-carbonyl)-1,8-diazaspiro[4.5] decane-8-carboxylate] returned an inhibition at 1 µM of over 75% and an IC50 of under 100 nM.
For `O=C(OC(C(F)(F)F)C(F)(F)F)N1CCC2(CCCN2C(=O)c2cc3cc(F)ccc3s2)CC1` [Example 99, 1,1,1,3,3,3-Hexafluoropropan-2-yl 1-(5-fluorobenzo[b]thiophene-2-carbonyl)-1,8-diazaspiro[4.5] decane-8-carboxylate] the same measures were over 75% and under 100 nM.
Molecule `O=C(OC(C(F)(F)F)C(F)(F)F)N1CCC2(CCCN2C(=O)c2cc3cc(C(F)(F)F)ccc3[nH]2)CC1` [Example 100, 1,1,1,3,3,3-Hexafluoropropan-2-yl 1-(5-(trifluoromethyl)-1H-indole-2-carbonyl)-1,8-diazaspiro[4.5] decane-8-carboxylate] showed an inhibition at 1 µM in assay [2] of over 75%.
The same measure, in the same setting: the figure for `O=C(OC(C(F)(F)F)C(F)(F)F)N1CCC2(CCCN2C(=O)c2cc3ccc(F)cc3s2)CC1` [Example 103, 1,1,1,3,3,3-Hexafluoropropan-2-yl 1-(6-fluorobenzo[b]thiophene-2-carbonyl)-1,8-diazaspiro[4.5] decane-8-carboxylate] is over 75%.
For the molecule `O=C(OC(C(F)(F)F)C(F)(F)F)N1CCC2(CCN(Cc3ccnnc3)C2)CC1` [Example 106, 1,1,1,3,3,3-Hexafluoropropan-2-yl 2-(pyridazin-4-ylmethyl)-2,8-diazaspiro [4.5]decane-8-carboxylate], the inhibition at 1 µM in assay [1] (setting [3]) was over 75%.
Consider `O=C(OC(C(F)(F)F)C(F)(F)F)N1CCC2(CCCN2C(=O)c2cc3cc(F)ccc3[nH]2)CC1` [Example 107, 1,1,1,3,3,3-Hexafluoropropan-2-yl 1-(5-fluoro-1H-indole-2-carbonyl)-1,8-diazaspiro[4.5] decane-8-carboxylate], for which, in assay [2], the inhibition at 1 µM was over 75% and the half-inhibitory concentration (IC50) is under 100 nM.
The corresponding values for `Cc1cccc2cc(C(=O)N3CCCC34CCN(C(=O)OC(C(F)(F)F)C(F)(F)F)CC4)[nH]c12` [Example 108, 1,1,1,3,3,3-Hexafluoropropan-2-yl 1-(7-methyl-1H-indole-2-carbonyl)-1,8-diazaspiro[4.5] decane-8-carboxylate] are over 75% and under 100 nM.
The corresponding values for `O=C(OC(C(F)(F)F)C(F)(F)F)N1CCC2(CCCN2C(=O)c2cc3cc(Cl)c(Cl)cc3[nH]2)CC1` [Example 111, 1,1,1,3,3,3-Hexafluoropropan-2-yl 1-(5,6-dichloro-1H-indole-2-carbonyl)-1,8-diazaspiro[4.5] decane-8-carboxylate] are over 75% and under 100 nM.
For `CC(C)(C)c1cc(CN2CCC3(CCN(C(=O)OC(C(F)(F)F)C(F)(F)F)CC3)C2)n(-c2ccccc2Cl)n1` [Example 217, 1,1,1,3,3,3-Hexafluoropropan-2-yl 2-((3-(t-butyl)-1-(2-chlorophenyl)-1H-pyrazol-5-yl)methyl)-2,8-diazaspiro[4.5]decane-8-carboxylate] the same measures were over 75% and under 100 nM.
Molecule `CC(C)n1cc(CN2CCCC23CCN(C(=O)OC(C(F)(F)F)C(F)(F)F)CC3)c(-c2cc(Cl)cc(Cl)c2)n1` [Example 220, 1,1,1,3,3,3-Hexafluoropropan-2-yl 1-((3-(3,5-dichlorophenyl)-1-isopropyl-1H-pyrazol-4-yl)methyl)-1,8-diazaspiro[4.5]decane-8-carboxylate] came in with an inhibition at 1 µM in assay [2] of over 75%.
On to `O=C(OC(C(F)(F)F)C(F)(F)F)N1CCC2(CCCN2Cc2cc3cc(Cl)ccc3[nH]2)CC1` [Example 224, 1,1,1,3,3,3-Hexafluoropropan-2-yl 1-((5-chloro-1H-indol-2-yl)methyl)-1,8-diazaspiro[4.5]decane-8-carboxylate], for which, in assay [2], the inhibition at 1 µM is over 75% and the IC50 was under 100 nM.
In assay [2], `O=C(OC(C(F)(F)F)C(F)(F)F)N1CCC2(CCCN2Cc2cncs2)CC1` [Example 225, 1,1,1,3,3,3-Hexafluoropropan-2-yl 1-(thiazol-5-ylmethyl)-1,8-diazaspiro [4.5]decane-8-carboxylate] returned an inhibition at 1 µM of over 75%.
